Source: patent US20260053931A1, “MDM2 TARGETING PROTACS” (THE WISTAR INSTITUTE OF ANATOMY AND BIOLOGY, priority 2023, published 2026)

What was measured:
[1] = system: TNBC patient mammospheres; assay: Patient TNBC 3D mammosphere cultures; type: cell-based, human
Description: FIGS. 27A-27E show TP53 mutant TNBC patient-derived explants undergo apoptosis following treatment with the MDM2-PROTAC YX-02-030. A. TP53 sequenced in five fresh TNBC patient samples and used in explant and 3D mammosphere cultures. B-C. TNBC patient-derived explants were treated with the compounds indicated and Western blotting (B) and immunohistochemistry (IHC) of FFPE sections for cleaved Caspase-3 (C, n=3 paired patient samples) were performed. Representative images of H&E and cleaved Caspase-3 (CC3) IHC shown, including normal breast epithelium treated with MDM2-PROTAC YX-02-030; scale bar 300 m. D-E. Mammosphere cultures were established from TNBC patient samples, treated with the indicated compounds, and live-cell detection of Caspase-3/7 activity (D, quadruplicate) and mammosphere survival/ATP production (E, quadruplicate) were measured.
For three of the patient TNBC tumor samples there was enough tissue to also establish 3D mammosphere cultures, and for one of these patients, normal breast epithelial tissue was also received that generated loose cell clusters.

[2] = system: OVCAR3; assay: Cell death of other cancer cell lines: OVCAR3; type: cell-based; settings: Homo sapiens, OVCAR-3; OVCAR3, Ovarian
Description: The PROTACs prepared herein were tested for their use in other cancer cell lines to determine activity in multiple different types of cancer.

[3] = molecular target: VHL (Homo sapiens, UniProt P40337); assay: HTRF binding assay for VHL (Table 2)
VHL, sequence (P40337 whole entry): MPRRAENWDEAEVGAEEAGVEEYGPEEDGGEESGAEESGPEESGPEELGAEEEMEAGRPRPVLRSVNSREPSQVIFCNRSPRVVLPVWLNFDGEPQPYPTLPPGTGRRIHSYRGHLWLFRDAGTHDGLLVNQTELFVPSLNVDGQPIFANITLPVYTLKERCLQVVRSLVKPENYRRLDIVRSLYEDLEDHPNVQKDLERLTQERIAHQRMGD
VHL, sequence (Q15370 whole entry partner): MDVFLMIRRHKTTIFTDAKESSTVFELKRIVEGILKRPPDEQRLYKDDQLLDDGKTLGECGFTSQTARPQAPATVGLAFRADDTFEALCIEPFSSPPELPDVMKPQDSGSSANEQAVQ
VHL, sequence (Q15369 whole entry partner): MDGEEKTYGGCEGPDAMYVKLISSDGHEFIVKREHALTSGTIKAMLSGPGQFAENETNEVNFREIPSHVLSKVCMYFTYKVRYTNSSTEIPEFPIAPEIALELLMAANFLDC
Text: Biochemical assays in 384-well format have established to assess the binding of newly synthesized PROTACs to the appropriate E3 ligase using HTRF technology. In these assays an anti-HIS antibody conjugated to terbium was used as the donor fluor, and either a Cy5 labeled small molecule probe, or a biotinylated peptide that is bound to a streptavidin acceptor.

[4] = mammospheres from three patient tumors

With `CCOc1cc(C(C)(C)C)ccc1C1=N[C@](C)(c2ccc(Cl)cc2)[C@](C)(c2ccc(Cl)cc2)N1C(=O)N1CCN(CC(=O)NCCOCCOCCOCC(=O)N[C@H](C(=O)N2C[C@H](O)C[C@H]2C(=O)NCc2ccc(-c3scnc3C)cc2)C(C)(C)C)CC1` (racemic) [YX-02-030] the Caspase-3/7 activity [1, 4] was “significantly increased Caspase-3/7 activity”, the mammosphere survival [1, 4] was “reduced survival” and the “effect on normal breast epithelial clusters” value ([1]; normal breast epithelial tissue of one patient) was “remained largely unaffected”. The IC50 [2] was 4.5 µM.

`CCOc1cc(C(C)(C)C)ccc1C1=N[C@](C)(c2ccc(Cl)cc2)[C@](C)(c2ccc(Cl)cc2)N1C(=O)N1CCN(CC(=O)NCCCNC(=O)COc2ccc3c(c2)CN(C(=O)[C@H](NC(=O)[C@@H](C)NC)C(C)(C)C)[C@@H](C(=O)N[C@H]2CCCc4ccccc42)C3)CC1` [YX-02-228, (R)-7-(2-((3-(2-(4-((4R,5S)-2-(4-(tert-butyl)-2-ethoxyphenyl)-4,5-bis(4-chlorophenyl)-4,5-dimethyl-4,5-dihydro-1H-imidazole-1-carbonyl)piperazin-1-yl)acetamido)propyl)amino)-2-oxoethoxy)-2-((R)-3,3-dimethyl-2-((R)-2-(methylamino)propanamido)butanoyl)-N-((S)-1,2,3,4-tetrahydronaphthalen-1-yl)-1,2,3,4-tetrahydroisoquinoline-3-carboxamide] was tested, and the IC50 [3] was > 10 µM.
